23 compounds from patent US20260354380A1, “PYRAZOLO PESTICIDAL COMPOUNDS” (BASF SE, priority 2022, published 2026) can be followed below.

Holding throughout (format): in vivo
The subject of one data set is Heliothis virescens. Nature of the data set: Action on Tobacco Budworm (Heliothis virescens). Particulars: 800 ppm; egg and larval mortality; 5 days. The essentials:
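Compounds in 25% DMSO/75% water were sprayed at several concentrations onto insect diet in microtiter wells holding 15-25 eggs, two replications. After 5 days at about 28±1 °C and 80±5% RH, egg and larval mortality was scored visually.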

The subject of data set [1] is Plutella xylostella. Nature of the data set: Action on Diamond Back Moth (Plutella xylostella), microtiter plates, insect diet, eggs. Conditions: 800 ppm; egg and larval mortality; 5 days. The protocol:
Example B8: Action on Diamond Back Moth (Plutella xylostella)
For evaluating control of diamond back moth (Plutella xylostella) the test unit consisted of 96-well-microtiter plates containing an insect diet and 15-25 P. xylostella eggs. The compounds or mixtures were formulated using a solution containing 75% water and 25% DMSO. Different concentrations of formulated compounds or mixtures were sprayed onto the insect diet at 5 μl, using a custom-built micro atomizer, at two replications. For experimental mixtures in these tests identical volumes of both mixing partners at the desired concentrations respectively, were mixed together. After application, microtiter plates were incubated at 28±1 °C, 80±5% RH for 5 days. Egg and larval mortality was then visually assessed.

The next data set concerns Spodoptera eridania. In words: Action on Southern Armyworm (Spodoptera eridania), 2nd Instar Larvae. Particulars: 300 ppm; 2nd instar larvae; 4 days after treatment. Put shortly: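 Compounds in 50% acetone/water with 0.01% nonionic surfactant sprayed electrostatically onto Lima bean plants at 1st true leaf stage. After drying, 10–11 2nd-instar larvae bagged with each pot, kept about 25 °C, 20–40% RH. Mortality and reduced feeding scored at 4 days vs untreated plants.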

A further data set has as its system Anthonomus grandis. Nature of the data set: Action on Boll Weevil (Anthonomus grandis). Conditions: 800 ppm; egg and larval mortality; 5 days. The essentials: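 Compounds in 75:25 water:DMSO sprayed at several concentrations onto insect diet in microtiter wells holding 5-10 eggs, two replicates. Plates kept 5 days at about 25±1 °C and 75±5% RH; egg and larval mortality scored visually.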

A further data set has as its system Aedes aegypti. In words: whole plant or invertebrate. Particulars: 800 ppm; larvae; 2 days. Put shortly:
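Freshly hatched larvae (5-15 per well) were held in tap water, and compounds formulated in 25% DMSO/water were sprayed onto diet at several concentrations in duplicate. Larval mortality was scored visually after 2 days at 28±1 °C, 80±5% RH.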

Data set [2] deals with Plutella xylostella. In words: Action on Diamond Back Moth (Plutella xylostella), cabbage leaf dip, 3rd instar larvae. Conditions: 300 ppm; 3rd instar larvae; 72 hours after treatment. The essentials: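 Cabbage leaves dipped in compound solution (1:1 water:acetone, 0.01% v/v surfactant), air-dried, then infested with ten 3rd-instar larvae in petri dishes on moist filter paper. Mortality scored at 72 h after treatment; feeding damage rated on a 0–100% scale.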

As for `Cc1ccc(C(C)C)c(N2C(=O)CS/C2=N\C(=O)Nc2ccc(-n3cc(NC(=O)c4ccc(Cl)cc4Cl)c(C)n3)cc2)c1` [Example C-27], the “mortality in comparison with untreated controls” value (“mortality in comparison” for short) in the data set on Heliothis virescens, in the data set on Plutella xylostella [1], with Spodoptera eridania and in the data set on Anthonomus grandis was “at least 75%” throughout.

On to `Cc1ccc(C(C)C)c(N2C(=O)CS/C2=N\C(=O)Nc2ccc(-n3cc(NC(=O)c4ccc(Cl)cc4)c(C)n3)cc2)c1` [Example C-29], for which the “mortality in comparison” value in the data set on Heliothis virescens is “at least 75%”; in the data set on Plutella xylostella [1], “at least 75%”; with Spodoptera eridania it was “at least 75%”; in the data set with Anthonomus grandis, “at least 75%”; with Aedes aegypti, “at least 50%”.

For `Cc1ccc(C(C)C)c(N2C(=O)CSC2=NC(=O)Nc2ccc(-n3cc(NC(=O)c4ccc(S(C)(=O)=O)cn4)c(C)n3)cc2)c1` [Example C-38], the “mortality in comparison” value in the data set on Heliothis virescens, with Plutella xylostella [1], in the data set with Spodoptera eridania and with Anthonomus grandis was “at least 75%” throughout.

In the case of `Cc1ccc(C(C)C)c(N2C(=O)CSC2=NC(=O)Nc2ccc(-n3nc(C)c(NC(=O)c4ccc(OC(F)(F)F)cc4)c3C)c(Cl)c2)c1` [Example C-45], the “mortality in comparison” value with Heliothis virescens was “at least 75%”; in the data set on Plutella xylostella [1], “at least 75%”; with Spodoptera eridania it was “at least 75%”; in the data set on Anthonomus grandis it was “at least 75%”; in the data set with Aedes aegypti it was “at least 50%”.

For `Cc1ccc(C(C)C)c(N2C(=O)CSC2=NC(=O)Nc2ccc(-n3cc(NC(=O)c4ccc(OC(C)C)cc4)c(C)n3)cc2)c1` [Example C-48], the “mortality in comparison” value in the data set with Heliothis virescens, in the data set with Plutella xylostella [1] and in the data set with Spodoptera eridania was “at least 75%” in each case.

In the case of `Cc1ccc(C(C)C)c(N2C(=O)CSC2=NC(=O)Nc2ccc(-n3cc(NC(=O)c4ccc(C5COC5)cc4)c(C)n3)cc2)c1` [Example C-52], the “mortality in comparison” value in the data set with Heliothis virescens, with Plutella xylostella [1] and with Anthonomus grandis was “at least 75%” each time.

In the case of `Cc1ccc(C(C)C)c(N2C(=O)CSC2=NC(=O)Nc2ccc(-n3cc(NC(=O)c4ccc(S(C)(=O)=O)cc4)c(C)n3)cc2)c1` [Example C-53], the “mortality in comparison” value in the data set with Plutella xylostella [1] was “at least 75%”.

Regarding `Cc1ccc(C(C)C)c(N2C(=O)CSC2=NC(=O)Nc2ccc(-n3cc(NC(=O)c4ccc(N=S(C)(C)=O)cc4)c(C)n3)cc2)c1` [Example C-55], the “mortality in comparison” value with Plutella xylostella [1] and in the data set with Anthonomus grandis was “at least 75%” in each case.

On to `Cc1ccc(C(C)C)c(N2C(=O)CSC2=NC(=O)Nc2ccc(-n3cc(NC(=O)c4ccc(C(C)(C)C#N)cc4)c(C)n3)cc2)c1` [Example C-56], for which the “mortality in comparison” value in the data set with Heliothis virescens, with Plutella xylostella [1] and with Spodoptera eridania was “at least 75%” throughout.

As for `Cc1ccc(C(C)C)c(N2C(=O)CSC2=NC(=O)Nc2ccc(-n3cc(NC(=O)c4ccc(S(C)(=O)=O)c(F)c4)c(C)n3)cc2)c1` [Example C-57], the “mortality in comparison” value in the data set with Heliothis virescens and in the data set on Plutella xylostella [1] was “at least 75%” throughout.

As to `Cc1ccc(C(C)C)c(N2C(=O)CSC2=NC(=O)Nc2ccc(-n3cc(NC(=O)c4ccc(C5CCC5)cc4)c(C)n3)cc2)c1` [Example C-58], the “mortality in comparison” value with Heliothis virescens, with Plutella xylostella [1] and in the data set with Anthonomus grandis was “at least 75%” each time.

Consider `CNC(=O)c1ccc(C(=O)Nc2cn(-c3ccc(NC(=O)N=C4SCC(=O)N4c4cc(C)ccc4C(C)C)cc3)nc2C)cn1` [Example C-60], for which the “mortality in comparison” value with Plutella xylostella [1] is listed as “at least 75%”.

Consider `Cc1ccc(C(C)C)c(N2C(=O)CSC2=NC(=O)Nc2ccc(-n3cc(NC(=O)c4ccc(Cl)nc4)c(C)n3)cc2)c1` [Example C-66], for which the “mortality in comparison” value with Heliothis virescens is “at least 75%”; in the data set on Plutella xylostella [1], “at least 75%”; in the data set with Anthonomus grandis, “at least 75%”; with Aedes aegypti, “at least 50%”.

Take `Cc1ccc(C(C)C)c(N2C(=O)CSC2=NC(=O)Nc2ccc(-n3cc(NC(=O)c4cncnc4)c(C)n3)cc2)c1` [Example C-68]: the “mortality in comparison” value in the data set with Heliothis virescens, with Plutella xylostella [1], in the data set with Spodoptera eridania and in the data set on Anthonomus grandis was “at least 75%” in each case.

In the case of `Cc1ccc(C(C)C)c(N2C(=O)CSC2=NC(=O)Nc2ccc(-n3cc(NC(=O)c4ccc(C(C)(C)C)cc4)c(C)n3)cc2)c1` [Example C-73], in the data set with Plutella xylostella [1], the “mortality in comparison” value is reported as “at least 75%”.

Take `Cc1csc(C(=O)Nc2cn(-c3ccc(NC(=O)/N=C4\SCC(=O)N4c4cc(C)ccc4C(C)C)cc3)nc2C)c1` [Example C-93]: the “mortality in comparison” value is recorded as “at least 75%” with Plutella xylostella [2]; “at least 75%” with Heliothis virescens; “at least 75%” in the data set on Spodoptera eridania; “at least 75%” in the data set with Anthonomus grandis; “at least 50%” with Aedes aegypti.

Take `Cc1ccc(C(C)C)c(N2C(=O)CS/C2=N\C(=O)Nc2ccc(-n3cc(NC(=O)c4ccc(C)s4)c(C)n3)cc2)c1` [Example C-94]: the “mortality in comparison” value with Plutella xylostella [2] is “at least 75%”; with Heliothis virescens, “at least 75%”; with Spodoptera eridania, “at least 75%”; in the data set with Anthonomus grandis it was “at least 75%”; in the data set on Aedes aegypti, “at least 50%”.

Take `Cc1ccc(C(C)C)c(N2C(=O)CS/C2=N\C(=O)Nc2ccc(-n3cc(NC(=O)c4cccs4)c(C)n3)cc2)c1` [Example C-95]: the “mortality in comparison” value is recorded as “at least 75%” in the data set on Plutella xylostella [2]; “at least 75%” in the data set on Heliothis virescens; “at least 75%” in the data set with Spodoptera eridania; “at least 75%” in the data set on Anthonomus grandis; “at least 50%” in the data set on Aedes aegypti.

Turning to `Cc1ccc(C(C)C)c(N2C(=O)CS/C2=N\C(=O)Nc2ccc(-n3nc(C)c(NC(=O)c4ccc(OC(F)(F)F)cc4)c3C)cc2C2CC2)c1` [Example C-96], the “mortality in comparison” value in the data set on Plutella xylostella [2] is on record as “at least 75%”; in the data set with Heliothis virescens, “at least 75%”; in the data set with Spodoptera eridania it was “at least 75%”; with Anthonomus grandis, “at least 75%”; in the data set on Aedes aegypti it was “at least 50%”.

As to `Cc1ccc(C(C)C)c(N2C(=O)CSC2=NC(=O)Nc2ccc(-n3nc(C)c(NC(=O)c4ccc(F)c(Cl)c4)c3C)cc2)c1` [Example C-113], the “mortality in comparison” value in the data set on Heliothis virescens is “at least 75%”; in the data set with Plutella xylostella [1] it was “at least 75%”; in the data set on Anthonomus grandis, “at least 75%”; in the data set with Aedes aegypti, “at least 50%”.

Take `Cc1ccc(C(C)C)c(N2C(=O)CSC2=NC(=O)Nc2ccc(-n3nc(C)c(NC(=O)c4ccc(Br)c(C#N)c4)c3C)cc2)c1` [Example C-121]: the “mortality in comparison” value with Plutella xylostella [1] is listed as “at least 75%”; in the data set on Spodoptera eridania it was “at least 75%”; in the data set on Anthonomus grandis, “at least 75%”; with Aedes aegypti it was “at least 50%”.

Take `Cc1ccc(C(C)C)c(N2C(=O)CSC2=NC(=O)Nc2ccc(-n3nc(C)c(NC(=O)c4ccc(C(Cl)Cl)cc4)c3C)cc2)c1` [Example C-122]: the “mortality in comparison” value in the data set with Plutella xylostella [1] and with Anthonomus grandis was “at least 75%” in each case.

Take `Cc1ccc(C(C)C)c(NC(=S)NC(=O)Nc2ccc(-n3cc(NC(=O)c4ccc(OC(F)(F)F)cc4)c(C)n3)cc2)c1` [Example C-127]: the “mortality in comparison” value with Heliothis virescens, with Plutella xylostella [1], in the data set on Spodoptera eridania and in the data set with Anthonomus grandis was “at least 75%” throughout.
